For orientation: IC50 means the concentration that inhibits the measured activity by half. For orientation: inhibition means the relative decrease from the control value, in per cent.

Read-outs that look alike come from different tables or passages of the source.

Among the data in patent US7135466B2 (Kirin Beer Kabushiki Kaisha, priority 1999, dated 2006) are IC50 and inhibition values, retold here.

One assay deals with T1, PDGF-Ra (Homo sapiens, UniProt P16234).
T1 construct: host or cells: G-292 human osteosarcoma cells
T1 sequence (P16234 24-1089): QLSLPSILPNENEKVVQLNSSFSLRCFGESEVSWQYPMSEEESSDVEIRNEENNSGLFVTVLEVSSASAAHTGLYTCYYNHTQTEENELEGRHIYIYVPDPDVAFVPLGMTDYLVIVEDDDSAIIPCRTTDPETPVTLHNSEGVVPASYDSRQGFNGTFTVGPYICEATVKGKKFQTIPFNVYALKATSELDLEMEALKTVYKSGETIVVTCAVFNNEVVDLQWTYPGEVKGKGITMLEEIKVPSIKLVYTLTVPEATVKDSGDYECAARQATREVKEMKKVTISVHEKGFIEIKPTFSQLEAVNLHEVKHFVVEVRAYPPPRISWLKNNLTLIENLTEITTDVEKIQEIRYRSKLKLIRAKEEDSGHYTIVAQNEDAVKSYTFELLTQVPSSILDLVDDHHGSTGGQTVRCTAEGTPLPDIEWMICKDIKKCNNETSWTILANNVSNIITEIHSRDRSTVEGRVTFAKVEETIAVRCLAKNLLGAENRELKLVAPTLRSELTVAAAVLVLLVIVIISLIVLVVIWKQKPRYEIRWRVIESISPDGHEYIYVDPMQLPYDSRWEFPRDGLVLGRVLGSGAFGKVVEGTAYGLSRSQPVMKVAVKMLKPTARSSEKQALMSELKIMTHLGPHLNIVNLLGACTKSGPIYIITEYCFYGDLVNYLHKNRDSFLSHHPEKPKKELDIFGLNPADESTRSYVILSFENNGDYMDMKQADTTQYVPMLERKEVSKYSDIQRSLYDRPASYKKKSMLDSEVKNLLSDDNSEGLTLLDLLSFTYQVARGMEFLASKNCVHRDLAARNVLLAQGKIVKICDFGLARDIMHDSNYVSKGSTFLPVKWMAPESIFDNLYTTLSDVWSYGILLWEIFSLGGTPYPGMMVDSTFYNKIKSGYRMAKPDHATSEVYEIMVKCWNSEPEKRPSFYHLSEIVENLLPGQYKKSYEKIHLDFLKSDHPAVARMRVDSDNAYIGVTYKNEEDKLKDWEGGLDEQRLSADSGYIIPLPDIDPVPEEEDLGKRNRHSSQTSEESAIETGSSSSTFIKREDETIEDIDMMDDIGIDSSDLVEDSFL
Put plainly: Inhibitory activity against PDGF-Ra phosphorylation by PDGF-AA stimulation using G292. It is filed as cell-based. Conditions: for IC50: > means inhibition at indicated concentration not more than 50%, < and << not less than 50%, read-out: PDGF (E) IC50; for inhibition at 0.1 µM: G292, figure within parentheses in >100( ), at 100 nM, read-out: PDGF (E) inhibition (%) at 100 nM. In outline: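 In G-292 osteosarcoma cells kept overnight in 0.1% FBS, compound exposure (1 hr, 37 °C) preceded PDGF-AA stimulation at 50 ng/ml for 5 min; receptor phosphotyrosine was then detected by PY-20 capture ELISA.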

The target in the next assay is T2, c-kit (Homo sapiens, UniProt P10721).
T2 construct: MO7e (human megakaryocytic leukemia cell line) which had been arrested for 20 hr; endogenous in cells; host or cells: MO7e human megakaryocytic leukemia cell line
T2 sequence (P10721 26-976): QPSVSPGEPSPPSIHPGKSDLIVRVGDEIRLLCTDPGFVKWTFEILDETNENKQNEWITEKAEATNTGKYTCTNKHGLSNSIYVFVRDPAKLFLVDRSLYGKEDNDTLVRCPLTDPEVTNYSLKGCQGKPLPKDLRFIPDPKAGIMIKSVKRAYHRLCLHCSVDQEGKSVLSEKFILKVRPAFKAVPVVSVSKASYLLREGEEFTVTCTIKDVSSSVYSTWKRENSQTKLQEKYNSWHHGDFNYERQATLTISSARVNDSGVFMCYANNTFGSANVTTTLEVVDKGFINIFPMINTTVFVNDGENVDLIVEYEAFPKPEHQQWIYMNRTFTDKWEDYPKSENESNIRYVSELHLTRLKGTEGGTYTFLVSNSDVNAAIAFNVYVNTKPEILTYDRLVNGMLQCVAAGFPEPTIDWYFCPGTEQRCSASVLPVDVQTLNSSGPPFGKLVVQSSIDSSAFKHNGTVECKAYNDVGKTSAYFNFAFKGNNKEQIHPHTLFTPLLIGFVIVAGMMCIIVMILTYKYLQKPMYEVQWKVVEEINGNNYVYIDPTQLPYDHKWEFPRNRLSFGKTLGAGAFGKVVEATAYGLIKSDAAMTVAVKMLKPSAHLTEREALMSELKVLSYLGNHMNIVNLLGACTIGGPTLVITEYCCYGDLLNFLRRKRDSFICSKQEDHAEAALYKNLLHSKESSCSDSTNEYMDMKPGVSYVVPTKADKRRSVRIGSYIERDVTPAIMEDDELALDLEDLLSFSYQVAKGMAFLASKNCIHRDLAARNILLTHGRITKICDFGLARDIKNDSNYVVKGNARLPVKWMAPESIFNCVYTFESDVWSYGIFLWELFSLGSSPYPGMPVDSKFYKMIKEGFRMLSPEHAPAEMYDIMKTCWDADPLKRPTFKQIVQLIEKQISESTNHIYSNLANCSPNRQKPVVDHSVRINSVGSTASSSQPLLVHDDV
Put plainly: Inhibitory activity against c-kit autophosphorylation (MO7e cells, h-SCF). In kind it is cell-based. Particulars: for IC50: MO7e cells, read-out: c-kit IC50; for inhibition at 1 µM: Mo7e, at 1000 nM. An outline of the steps:
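MO7e human megakaryocytic leukemia cells, arrested 20 hr, treated with compound 1 hr, then stimulated with 50 ng/ml h-SCF for 5 min and lysed. Lysates captured on immobilized anti-phosphotyrosine antibody, detected with anti-c-kit primary and HRP secondary antibody; absorbance at 450 nm.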

[1] abbreviates: figure within parentheses in −( ) or >1000( ).

`COc1cc2ncnc(Oc3ccc(OC(=O)c4ccccc4)cc3)c2cc1OC` [Example 772, 4-[(6,7-Dimethoxy-4-quinazolinyl)oxy]phenyl benzoate]: at PDGF-Ra, the IC50 is greater than 100 nM and the inhibition at 0.1 µM was determined as 13%. Further, on c-kit (50 ng/ml h-SCF), the IC50 stood at 550 nM.

Regarding `COc1ccccc1NCCOc1ccc(Oc2ccnc3cc(OC)c(OC)cc23)cc1` [Example 777, N-(2-{4-[(6,7-Dimethoxy-4-quinolyl)oxy]phenoxy}ethyl)-N-(2-methoxyphenyl)amine], the IC50 at PDGF-Ra and at c-kit (50 ng/ml h-SCF) was 11 nM throughout.

Consider `COc1cccc(NCCOc2ccc(Oc3ccnc4cc(OC)c(OC)cc34)cc2)c1` [Example 779, N-(2-{4-[(6,7-Dimethoxy-4-quinolyl)oxy]phenoxy}ethyl)-N-(3-methoxyphenyl)amine], for which the results for the half-inhibitory concentration (IC50) at PDGF-Ra and at c-kit (50 ng/ml h-SCF) were less than 10 nM and 107 nM, respectively.

In the case of `COc1cc2nccc(Oc3ccc(OCCCOc4ccc(C)cc4)cc3)c2cc1OC` [Example 790, 6,7-Dimethoxy-4-{4-[3-(4-methylphenoxy)propoxy]phenoxy}quinoline], the values for the IC50 on PDGF-Ra and on c-kit (50 ng/ml h-SCF) were less than 3 nM and 107 nM, respectively.

Take `COc1cc2nccc(Oc3ccc(OCCCOc4cccc(C)c4)cc3)c2cc1OC` [Example 791, 6,7-Dimethoxy-4-{4-[3-(3-methylphenoxy)propoxy]phenoxy}quinoline]: the IC50 at PDGF-Ra turned out to be 3 nM; on c-kit (50 ng/ml h-SCF) it was 208 nM.

Consider `COc1cc2nccc(Oc3ccc(OCCCOc4ccccc4C)cc3)c2cc1OC` [Example 792, 6,7-Dimethoxy-4-{4-[3-(2-methylphenoxy)propoxy]phenoxy}quinoline], for which the IC50 at PDGF-Ra is 6 nM; at c-kit (50 ng/ml h-SCF), 301 nM.

On to `COc1cccc(OCCCOc2ccc(Oc3ccnc4cc(OC)c(OC)cc34)cc2)c1` [Example 793, 6,7-Dimethoxy-4-{4-[3-(3-methoxyphenoxy)propoxy]phenoxy}quinoline], for which the IC50 on PDGF-Ra turned out to be 6 nM; at c-kit (50 ng/ml h-SCF), 335 nM.

As to `COc1ccc(OCCCOc2ccc(Oc3ccnc4cc(OC)c(OC)cc34)cc2)cc1` [Example 794, 6,7-Dimethoxy-4-{4-[3-(4-methoxy-phenoxy)propoxy]phenoxy}quinoline], the IC50 on PDGF-Ra came out at 14 nM; at c-kit (50 ng/ml h-SCF), 192 nM.

For `COc1cc2nccc(Oc3ccc(OCCCOc4ccccc4OC)cc3)c2cc1OC` [Example 795, 6,7-Dimethoxy-4-{4-[3-(2-methoxy-phenoxy)propoxy]phenoxy}quinoline], the IC50 on PDGF-Ra amounted to 5 nM; at c-kit (50 ng/ml h-SCF) it was 336 nM.

Consider `COc1cc2nccc(Oc3ccc(OCCCOc4ccccc4F)cc3)c2cc1OC` [Example 796, 4-{4-[3-(2-Fluorophenoxy)propoxy]phenoxy}-6,7-dimethoxyquinoline], for which the IC50 was determined as 15 nM at PDGF-Ra and 394 nM at c-kit (50 ng/ml h-SCF).

`COc1cc2nccc(Oc3ccc(OCCCOc4cccc(F)c4)cc3)c2cc1OC` [Example 797, 4-{4-[3-(3-Fluorophenoxy)propoxy]phenoxy}-6,7-dimethoxyquinoline]: the IC50 on PDGF-Ra came out at 27 nM; at c-kit (50 ng/ml h-SCF), 403 nM.

On to `COc1cc2nccc(Oc3ccc(OCCCOc4ccc(F)cc4)cc3)c2cc1OC` [Example 798, 4-{4-[3-(4-Fluorophenoxy)propoxy]phenoxy}-6,7-dimethoxyquinoline], for which the IC50 on PDGF-Ra is less than 10 nM; at c-kit (50 ng/ml h-SCF), 439 nM.

Take `COc1cccc(NC(=O)COc2ccc(Oc3ncnc4cc(OC)c(OC)cc34)cc2)c1` [Example 800, N1-(3-Methoxyphenyl)-2-{4-[(6,7-dimethoxy-4-quinazolinyl)oxy]phenoxy}acetamide]: the IC50 at PDGF-Ra was less than 10 nM; on c-kit (50 ng/ml h-SCF) it was 30 nM.

As for `COc1cccc(CNC(=O)COc2ccc(Oc3ncnc4cc(OC)c(OC)cc34)cc2)c1` [Example 801, N1-(3-Methoxybenzyl)-2-{4-[(6,7-dimethoxy-4-quinazolinyl)oxy]phenoxy}acetamide], the results for the IC50 on PDGF-Ra and at c-kit (50 ng/ml h-SCF) were 13 nM and 70 nM, respectively.

With `COc1cc2ncnc(Oc3ccc(OCC(=O)N4CCc5ccccc5C4)cc3)c2cc1OC` [Example 802, 2-{4-[(6,7-Dimethoxy-4-quinazolinyl)oxy]phenoxy}-1-(1,2,3,4-tetrahydro-2-isoquinolyl)-1-ethanone], at PDGF-Ra, the IC50 is less than 10 nM. The inhibition at 1 µM at c-kit (setting [1]) turned out to be 42%.

As for `COc1cc2ncnc(Oc3ccc(OCC(=O)N4CCC(c5ccccc5)CC4)cc3)c2cc1OC` [Example 803, 2-{4-[(6,7-Dimethoxy-4-quinazolinyl)oxy]phenoxy}-1-(4-phenylpiperidino)-1-ethanone], at PDGF-Ra, the concentration for half-maximal inhibition (IC50) came to 13 nM. Besides, on c-kit (setting [1]), the inhibition at 1 µM was 20%.

Regarding `COc1cc2ncnc(Oc3ccc(OCC(=O)N4CCC(Cc5ccccc5)CC4)cc3)c2cc1OC` [Example 804, 1-(4-Benzylpiperidino)-2-{4-[(6,7-dimethoxy-4-quinazolinyl)oxy]phenoxy}-1-ethanone], the IC50 at PDGF-Ra is 37 nM. For the same compound, the inhibition at 1 µM at c-kit (setting [1]) was determined as 20%.

With `COc1cc2ncnc(Oc3ccc(OCC(=O)N4CCC(N5CCCCC5)CC4)cc3)c2cc1OC` [Example 805, 2-{4-[(6,7-Dimethoxy-4-quinazolinyl)oxy]phenoxy}-1-(4-piperidinopiperidino)-1-ethanone], at PDGF-Ra, the IC50 is greater than 100 nM and the inhibition at 0.1 µM was determined as 14%. Further, the inhibition at 1 µM on c-kit (setting [1]) was determined as 35%.

For the compound `CCN(CC)CCOc1ccc(Oc2ncnc3cc(OC)c(OC)cc23)cc1` [Example 807, N-(2-{4-[(6,7-Dimethoxy-4-quinazolinyl)oxy]phenoxy}ethyl)-N,N-diethylamine], on PDGF-Ra, the IC50 was greater than 100 nM and the inhibition at 0.1 µM is 20%. Further, on c-kit (setting [1]), the inhibition at 1 µM came out at 20%.

`COc1cc2ncnc(Oc3ccc(OCCCOc4ccc(F)cc4)cc3)c2cc1OC` [Example 808, 4-{4-[3-(4-Fluorophenoxy)propoxy]phenoxy}-6,7-dimethoxyquinazoline]: the results for the IC50 at PDGF-Ra and at c-kit (50 ng/ml h-SCF) were less than 10 nM and 61 nM, respectively.

As for `COc1cccc(OCCCOc2ccc(Oc3ncnc4cc(OC)c(OC)cc34)cc2)c1` [Example 809, 6,7-Dimethoxy-4-{4-[3-(3-methoxyphenoxy)propoxy]phenoxy}quinazoline], the results for the IC50 on PDGF-Ra and on c-kit (h-SCF stimulation) were less than 10 nM and 73 nM, respectively.

With `COc1cc2ncnc(Oc3ccc(OCCCOc4ccccc4OC)cc3)c2cc1OC` [Example 810, 6,7-Dimethoxy-4-{4-[3-(2-methoxyphenoxy)propoxy]phenoxy}quinazoline], the IC50 at PDGF-Ra was 18 nM; on c-kit (h-SCF stimulation) it was 269 nM.

For `COc1cc2ncnc(Oc3ccc(OCCCn4ccc5ccccc54)cc3)c2cc1OC` [Example 811, 4-{4-[3-(1H-1-Indolyl)propoxy]phenoxy}-6,7-dimethoxyquinazoline], at PDGF-Ra, the IC50 was found to be 17 nM. In addition, the inhibition at 1 µM on c-kit (figure in parentheses in −( )) was 20%.

Take `COc1cc2nccc(Oc3ccc(NCCOc4cccc(C)c4)cc3C)c2cc1OC` [Example 878, N-{4-[(6,7-Dimethoxy-4-quinolyl)oxy]-3-methylphenyl}-N-[2-(3-methylphenoxy)ethyl]amine]: the IC50 worked out at 19 nM on PDGF-Ra and 65 nM at c-kit (h-SCF stimulation).

For the compound `COc1cc2nccc(Oc3ccc(NCCOc4ccc(C)cc4)cc3C)c2cc1OC` [Example 879, N-{4-[(6,7-Dimethoxy-4-quinolyl)oxy]-3-methylphenyl}-N-[2-(4-methylphenoxy)ethyl]amine], the IC50 at PDGF-Ra stood at 20 nM; at c-kit (h-SCF stimulation), 48 nM.
